According to patent publication US10294202B2, “Pyrrolidinones as herbicides” (FMC Corporation, priority 2013, dated 2019):

Columns and labels:
wheat = test: Test A pre-/postemergence herbicide test; type: in vivo, Triticum aestivum; conditions: 1000 g ai/ha
Method in brief: (§1)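 Planted in loam–sand blend; treated the same day preemergence by directed soil spray, while separately grown plants at one- to two-leaf stage got postemergence spray. Compared visually with untreated controls after approximately 10 days; 100 means complete control.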

pigweed = test: Test A pre-/postemergence herbicide test; type: in vivo, Amaranthus retroflexus; conditions: 1000 g ai/ha
Method in brief: as §1

crabgrass, large = test: Test C pre-/postemergence herbicide test; type: in vivo, Digitaria sanguinalis
Method in brief: (§2)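 Test compounds, formulated in a surfactant-containing non-phytotoxic solvent blend, are applied to seeded loam/sand soil (preemergence) and to young plants at the 1- to 4-leaf stage in peat-based medium (postemergence). Plants stay 13 to 15 days under greenhouse conditions, then are scored visually relative to controls, 0 = no effect, 100 = complete control.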

ryegrass, Italian = test: Test C pre-/postemergence herbicide test; type: in vivo, Lolium multiflorum
Source text: (§3) Seeds of plant species selected from blackgrass (Alopecurus myosuroides), ryegrass, Italian (Italian ryegrass, Lolium multiflorum), wheat (winter wheat, Triticum aestivum), galium (catchweed bedstraw, Galium aparine), corn (Zea mays), crabgrass, large (large crabgrass, Digitaria sanguinalis), foxtail, giant (giant foxtail, Setaria faberii), johnsongrass (Sorghum halepense), lambsquarters (Chenopodium album), morningglory (Ipomoea coccinea), nutsedge, yellow (yellow nutsedge, Cyperus esculentus), pigweed (Amaranthus retroflexus), ragweed (common ragweed, Ambrosia elatior), soybean (Glycine max), barnyardgrass (Echinochloa crus-galli), oilseed rape (Brassica napus), waterhemp (common waterhemp, Amaranthus rudis), kochia (Kochia scoparia), oat, wild (wild oat, Avena fatua), surinam grass (Brachiaria decumbens), foxtail, green (green foxtail, Setaria viridis), goosegrass (Eleusine indica), bromegrass, downy (downy bromegrass, Bromus tectorum), nightshade (eastern black nightshade, Solanum ptycanthum), cocklebur (common cocklebur, Xanthium strumarium), cupgrass, woolly (woolly cupgrass, Eriochloa villosa), bermudagrass (Cynodon dactylon), sunflower, (common oilseed sunflower, Helianthus annuus), Russian thistle (Salsola kali) and velvetleaf (Abutilon theophrasti) were planted into a blend of loam soil and sand and treated preemergence with test chemicals formulated in a non-phytotoxic solvent mixture which included a surfactant. At the same time, plants selected from these crop and weed species and also barley (winter barley, Hordeum vulgare), […]), chickweed (common chickweed, Stellaria media), deadnettle (henbit deadnettle, Lamium amplexicaule), and canarygrass (littleseed canarygrass, Phalaris minor) were planted in pots containing Redi-Earth® planting medium (Scotts Company, 14111 Scottslawn Road, Marysville, Ohio 43041) comprising spaghnum peat moss, vermiculite, wetting agent and starter nutrients and treated with postemergence applications of test chemicals formulated in the same manner. Plants ranged in height from 2 to 18 cm (1- to 4-leaf stage) for postemergence treatments. Treated plants and controls were maintained in a greenhouse for 13 to 15 days, after which time all species were compared to controls and visually evaluated. Plant response ratings, summarized in Table C, are based on a scale of 0 to 100 where 0 is no effect and 100 is complete control. A dash (-) response means no test result.

galium = test: Test C pre-/postemergence herbicide test; type: in vivo, Galium aparine
Source text: as §3

barnyardgrass = test: Test A pre-/postemergence herbicide test; type: in vivo, Echinochloa crus-galli; conditions: 1000 g ai/ha
Method in brief: as §1

corn [1] = test: Test A pre-/postemergence herbicide test; type: in vivo, Zea mays; conditions: 1000 g ai/ha
Method in brief: as §1

foxtail, giant = test: Test C pre-/postemergence herbicide test; type: in vivo, Setaria faberii
Method in brief: as §2

johnsongrass = test: Test C pre-/postemergence herbicide test; type: in vivo, Sorghum halepense
Source text: as §3

wheat (winter wheat) = test: Test C pre-/postemergence herbicide test; type: in vivo, Triticum aestivum
Source text: as §3

morningglory = test: Test C pre-/postemergence herbicide test; type: in vivo, Ipomoea coccinea
Source text: as §3

corn [2] = test: Test C pre-/postemergence herbicide test; type: in vivo, Zea mays
Method in brief: as §2

soybean = test: Test C pre-/postemergence herbicide test; type: in vivo, Glycine max
Source text: as §3

[3] = Postemergence, 0 to 100 scale (0 no effect, 100 complete control)
[4] = Preemergence, visual rating on 0 to 100 scale (0 no effect, 100 complete control), approx. 10 days
[5] = Postemergence, 31 g ai/ha, scale 0 (no effect) to 100 (complete control)
[6] = Postemergence, 62 g ai/ha, scale 0 to 100 (0 no effect, 100 complete control)
[7] = Postemergence, 125 g ai/ha, scale 0 to 100 (0 no effect, 100 complete control)
[8] = Postemergence, 250 g ai/ha, scale 0 to 100 (0 no effect, 100 complete control)
[9] = Preemergence, 31 g ai/ha, scale 0 to 100 (0 no effect, 100 complete control)
[10] = Preemergence, 62 g ai/ha, scale 0 to 100
[11] = Preemergence, 125 g ai/ha, scale 0 to 100 (0 no effect, 100 complete control)
[12] = Preemergence, 250 g ai/ha, scale 0 to 100 (0 no effect, 100 complete control)

O=C1NCC(c2cc(F)c(F)c(F)c2)C1C(=O)Nc1ccccc1F (racemic) [Compound 34]
40: Plant response rating, Crabgrass, Large (crabgrass, large; [7])
5: Plant response rating, Galium (galium; [11]) | Plant response rating, Foxtail, Giant (foxtail, giant; [6]) | Plant response rating, Foxtail, Giant (foxtail, giant; [7]) | Plant response rating, Morningglory (morningglory; [6]) | Plant response rating, Morningglory (morningglory; [7]) | Plant response rating, Morningglory (morningglory; [11]) | Plant response rating, Soybean (soybean; [7]) | Plant response rating, Soybean (soybean; [11])
35: Plant response rating, Foxtail, Giant (foxtail, giant; [8]) | Plant response rating, Wheat (wheat (winter wheat); [11])
100: Plant response rating, Crabgrass, Large (crabgrass, large; [11]) | Plant response rating, Crabgrass, Large (crabgrass, large; [12])
50: Plant response rating, Corn (corn [1]; [3])
90: Plant response rating, Barnyardgrass (barnyardgrass; [3]) | Plant response rating, Barnyardgrass (barnyardgrass; [4]) | Foxtail, Giant plant response rating (foxtail, giant; [9])
60: Plant response rating, Wheat (wheat; [4]) | Plant response rating, Crabgrass, Large (crabgrass, large; [8]) | Plant response rating, Galium (galium; [12])
30: Plant response rating, Crabgrass, Large (crabgrass, large; [6]) | Plant response rating, Corn (corn [1]; [4])
70: Plant response rating, Wheat (wheat; [3])
0: Plant response rating, Pigweed (pigweed; [3]) | Plant response rating, Pigweed (pigweed; [4]) | Plant response rating, Crabgrass, Large (crabgrass, large; [5]) | Plant response rating, Ryegrass, Italian (ryegrass, Italian; [5]) | Plant response rating, Ryegrass, Italian (ryegrass, Italian; [6]) | Plant response rating, Ryegrass, Italian (ryegrass, Italian; [7]) | Plant response rating, Ryegrass, Italian (ryegrass, Italian; [8]) | Plant response rating, Ryegrass, Italian (ryegrass, Italian; [10]) | Plant response rating, Galium (galium; [5]) | Plant response rating, Galium (galium; [6]) | Plant response rating, Galium (galium; [7]) | Galium plant response rating (galium; [9]) | Plant response rating, Galium (galium; [10]) | Plant response rating, Foxtail, Giant (foxtail, giant; [5]) | Plant response rating, Johnsongrass (johnsongrass; [5]) | Plant response rating, Johnsongrass (johnsongrass; [6]) | Plant response rating, Johnsongrass (johnsongrass; [7]) | Plant response rating, Johnsongrass (johnsongrass; [8]) | Plant response rating, Wheat (wheat (winter wheat); [5]) | Plant response rating, Wheat (wheat (winter wheat); [6]) | Plant response rating, Wheat (wheat (winter wheat); [7]) | Plant response rating, Wheat (wheat (winter wheat); [8]) | Plant response rating, Wheat (wheat (winter wheat); [10]) | Plant response rating, Morningglory (morningglory; [5]) | Plant response rating, Morningglory (morningglory; [10]) | Plant response rating, Corn (corn [2]; [5]) | Plant response rating, Corn (corn [2]; [6]) | Plant response rating, Corn (corn [2]; [7]) | Plant response rating, Corn (corn [2]; [8]) | Corn plant response rating (corn [2]; [9]) | Plant response rating, Corn (corn [2]; [10]) | Plant response rating, Corn (corn [2]; [11]) | Plant response rating, Soybean (soybean; [5]) | Plant response rating, Soybean (soybean; [6]) | Plant response rating, Soybean (soybean; [10])
20: Plant response rating, Ryegrass, Italian (ryegrass, Italian; [11])
95: Crabgrass, Large plant response rating (crabgrass, large; [9]) | Plant response rating, Foxtail, Giant (foxtail, giant; [10])
98: Plant response rating, Crabgrass, Large (crabgrass, large; [10]) | Plant response rating, Foxtail, Giant (foxtail, giant; [11]) | Plant response rating, Foxtail, Giant (foxtail, giant; [12])
10: Plant response rating, Galium (galium; [8]) | Plant response rating, Johnsongrass (johnsongrass; [10]) | Plant response rating, Johnsongrass (johnsongrass; [11]) | Plant response rating, Morningglory (morningglory; [8]) | Plant response rating, Corn (corn [2]; [12]) | Plant response rating, Soybean (soybean; [8])

Cc1ccccc1NC(=O)C1C(=O)NCC1c1cc(F)c(F)c(F)c1 (racemic) [Compound 35]
5: Plant response rating, Ryegrass, Italian (ryegrass, Italian; [10]) | Plant response rating, Ryegrass, Italian (ryegrass, Italian; [11]) | Plant response rating, Galium (galium; [11]) | Plant response rating, Corn (corn [2]; [11]) | Plant response rating, Corn (corn [2]; [12])
80: Foxtail, Giant plant response rating (foxtail, giant; [9])
98: Plant response rating, Crabgrass, Large (crabgrass, large; [10]) | Plant response rating, Foxtail, Giant (foxtail, giant; [11]) | Plant response rating, Foxtail, Giant (foxtail, giant; [12])
90: Plant response rating, Barnyardgrass (barnyardgrass; [3]) | Plant response rating, Barnyardgrass (barnyardgrass; [4]) | Plant response rating, Foxtail, Giant (foxtail, giant; [10])
95: Crabgrass, Large plant response rating (crabgrass, large; [9])
10: Plant response rating, Wheat (wheat (winter wheat); [11]) | Plant response rating, Morningglory (morningglory; [10]) | Plant response rating, Morningglory (morningglory; [11])
20: Plant response rating, Corn (corn [1]; [3]) | Plant response rating, Corn (corn [1]; [4])
40: Plant response rating, Wheat (wheat; [3])
0: Plant response rating, Wheat (wheat; [4]) | Plant response rating, Pigweed (pigweed; [3]) | Plant response rating, Pigweed (pigweed; [4]) | Galium plant response rating (galium; [9]) | Plant response rating, Galium (galium; [10]) | Plant response rating, Johnsongrass (johnsongrass; [10]) | Plant response rating, Johnsongrass (johnsongrass; [11]) | Plant response rating, Wheat (wheat (winter wheat); [10]) | Corn plant response rating (corn [2]; [9]) | Plant response rating, Corn (corn [2]; [10]) | Plant response rating, Soybean (soybean; [10]) | Plant response rating, Soybean (soybean; [11])
30: Plant response rating, Galium (galium; [12])
100: Plant response rating, Crabgrass, Large (crabgrass, large; [11]) | Plant response rating, Crabgrass, Large (crabgrass, large; [12])
